Assay results taken from ChEMBL document CHEMBL3872258, “Challenges in the development of an M4 PAM in vivo tool compound: The discovery of VU0467154 and unexpected DMPK profiles of close analogs” (Bioorg Med Chem Lett, 2017).

Assays:
[1] = Inhibition of human adenosine transporter assessed as reduction in [3H]-adenosine uptake
[2] = molecular target: T1, Muscarinic acetylcholine receptor M4 (Rattus norvegicus, UniProt P08485); assay: Positive allosteric modulation of rat M4 receptor expressed in CHO cells co-expressing Gqui5 by calcium mobilization assay; assay type: functional, cell-based
T1 sequence (P08485 whole entry): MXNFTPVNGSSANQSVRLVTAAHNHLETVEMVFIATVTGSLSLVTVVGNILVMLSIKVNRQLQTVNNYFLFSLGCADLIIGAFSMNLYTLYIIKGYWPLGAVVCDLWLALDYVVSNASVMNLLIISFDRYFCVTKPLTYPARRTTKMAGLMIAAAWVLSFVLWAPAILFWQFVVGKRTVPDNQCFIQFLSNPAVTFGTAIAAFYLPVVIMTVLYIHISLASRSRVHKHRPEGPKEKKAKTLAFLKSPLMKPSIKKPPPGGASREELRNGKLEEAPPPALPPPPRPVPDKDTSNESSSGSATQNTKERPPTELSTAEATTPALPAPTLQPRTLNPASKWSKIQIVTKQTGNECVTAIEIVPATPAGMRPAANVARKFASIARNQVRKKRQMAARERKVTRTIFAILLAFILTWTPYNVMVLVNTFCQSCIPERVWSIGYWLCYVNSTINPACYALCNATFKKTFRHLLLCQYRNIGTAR

[3] = Ratio of total drug level in brain to plasma in Sprague-Dawley rat at 0.20 to 0.25 mg/kg, iv administered through cassette dosing after 0.25 hrs; assay type: ADME, organism-based
[4] = molecular target: T2, Muscarinic acetylcholine receptor M4 (Homo sapiens, UniProt P08173); assay: Positive allosteric modulation of human M4 receptor expressed in CHO cells co-expressing Gqui5 by calcium mobilization assay; assay type: functional, cell-based; conditions: read-out: EC50
T2 sequence (P08173 whole entry): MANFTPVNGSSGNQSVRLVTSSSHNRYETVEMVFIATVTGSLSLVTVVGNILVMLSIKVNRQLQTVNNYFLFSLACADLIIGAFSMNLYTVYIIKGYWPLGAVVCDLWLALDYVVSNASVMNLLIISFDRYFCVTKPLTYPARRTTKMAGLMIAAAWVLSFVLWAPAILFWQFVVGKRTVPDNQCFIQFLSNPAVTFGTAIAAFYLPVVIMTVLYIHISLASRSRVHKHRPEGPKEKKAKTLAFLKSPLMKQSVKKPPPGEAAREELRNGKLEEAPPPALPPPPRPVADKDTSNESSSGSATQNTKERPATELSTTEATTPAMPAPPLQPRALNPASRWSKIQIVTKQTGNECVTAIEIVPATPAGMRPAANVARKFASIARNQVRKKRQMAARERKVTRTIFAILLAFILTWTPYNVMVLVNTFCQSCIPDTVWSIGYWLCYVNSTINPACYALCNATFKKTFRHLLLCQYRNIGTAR

[5] = Plasma clearance in Sprague-Dawley rat at 1 mg/kg, iv; assay type: ADME, organism-based
[6] = molecular target: Growth hormone secretagogue receptor type 1 (Homo sapiens, UniProt Q92847); assay: Inhibition of ghrelin receptor (unknown origin) by radioligand binding assay
Chain of Growth hormone secretagogue receptor type 1 (Q92847 whole entry): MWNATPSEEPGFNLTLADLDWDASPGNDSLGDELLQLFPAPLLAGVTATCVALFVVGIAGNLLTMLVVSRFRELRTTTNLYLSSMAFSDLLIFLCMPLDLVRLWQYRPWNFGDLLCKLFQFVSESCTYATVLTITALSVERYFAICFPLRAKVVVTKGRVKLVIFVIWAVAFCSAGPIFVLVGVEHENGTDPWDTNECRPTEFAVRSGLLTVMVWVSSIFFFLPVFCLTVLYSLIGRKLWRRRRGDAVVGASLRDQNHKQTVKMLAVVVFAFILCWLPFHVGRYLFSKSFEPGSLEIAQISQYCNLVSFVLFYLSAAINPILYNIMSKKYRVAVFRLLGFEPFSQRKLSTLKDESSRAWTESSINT

[7] = Binding affinity to rat brain GABA receptor by radio-ligand binding assay
[8] = molecular target: Voltage-dependent L-type calcium channel subunit alpha-1C (Homo sapiens, UniProt Q13936); assay: Binding affinity to human Cav1.2 by radio-ligand binding assay
Chain of Voltage-dependent L-type calcium channel subunit alpha-1C (Q13936 whole entry): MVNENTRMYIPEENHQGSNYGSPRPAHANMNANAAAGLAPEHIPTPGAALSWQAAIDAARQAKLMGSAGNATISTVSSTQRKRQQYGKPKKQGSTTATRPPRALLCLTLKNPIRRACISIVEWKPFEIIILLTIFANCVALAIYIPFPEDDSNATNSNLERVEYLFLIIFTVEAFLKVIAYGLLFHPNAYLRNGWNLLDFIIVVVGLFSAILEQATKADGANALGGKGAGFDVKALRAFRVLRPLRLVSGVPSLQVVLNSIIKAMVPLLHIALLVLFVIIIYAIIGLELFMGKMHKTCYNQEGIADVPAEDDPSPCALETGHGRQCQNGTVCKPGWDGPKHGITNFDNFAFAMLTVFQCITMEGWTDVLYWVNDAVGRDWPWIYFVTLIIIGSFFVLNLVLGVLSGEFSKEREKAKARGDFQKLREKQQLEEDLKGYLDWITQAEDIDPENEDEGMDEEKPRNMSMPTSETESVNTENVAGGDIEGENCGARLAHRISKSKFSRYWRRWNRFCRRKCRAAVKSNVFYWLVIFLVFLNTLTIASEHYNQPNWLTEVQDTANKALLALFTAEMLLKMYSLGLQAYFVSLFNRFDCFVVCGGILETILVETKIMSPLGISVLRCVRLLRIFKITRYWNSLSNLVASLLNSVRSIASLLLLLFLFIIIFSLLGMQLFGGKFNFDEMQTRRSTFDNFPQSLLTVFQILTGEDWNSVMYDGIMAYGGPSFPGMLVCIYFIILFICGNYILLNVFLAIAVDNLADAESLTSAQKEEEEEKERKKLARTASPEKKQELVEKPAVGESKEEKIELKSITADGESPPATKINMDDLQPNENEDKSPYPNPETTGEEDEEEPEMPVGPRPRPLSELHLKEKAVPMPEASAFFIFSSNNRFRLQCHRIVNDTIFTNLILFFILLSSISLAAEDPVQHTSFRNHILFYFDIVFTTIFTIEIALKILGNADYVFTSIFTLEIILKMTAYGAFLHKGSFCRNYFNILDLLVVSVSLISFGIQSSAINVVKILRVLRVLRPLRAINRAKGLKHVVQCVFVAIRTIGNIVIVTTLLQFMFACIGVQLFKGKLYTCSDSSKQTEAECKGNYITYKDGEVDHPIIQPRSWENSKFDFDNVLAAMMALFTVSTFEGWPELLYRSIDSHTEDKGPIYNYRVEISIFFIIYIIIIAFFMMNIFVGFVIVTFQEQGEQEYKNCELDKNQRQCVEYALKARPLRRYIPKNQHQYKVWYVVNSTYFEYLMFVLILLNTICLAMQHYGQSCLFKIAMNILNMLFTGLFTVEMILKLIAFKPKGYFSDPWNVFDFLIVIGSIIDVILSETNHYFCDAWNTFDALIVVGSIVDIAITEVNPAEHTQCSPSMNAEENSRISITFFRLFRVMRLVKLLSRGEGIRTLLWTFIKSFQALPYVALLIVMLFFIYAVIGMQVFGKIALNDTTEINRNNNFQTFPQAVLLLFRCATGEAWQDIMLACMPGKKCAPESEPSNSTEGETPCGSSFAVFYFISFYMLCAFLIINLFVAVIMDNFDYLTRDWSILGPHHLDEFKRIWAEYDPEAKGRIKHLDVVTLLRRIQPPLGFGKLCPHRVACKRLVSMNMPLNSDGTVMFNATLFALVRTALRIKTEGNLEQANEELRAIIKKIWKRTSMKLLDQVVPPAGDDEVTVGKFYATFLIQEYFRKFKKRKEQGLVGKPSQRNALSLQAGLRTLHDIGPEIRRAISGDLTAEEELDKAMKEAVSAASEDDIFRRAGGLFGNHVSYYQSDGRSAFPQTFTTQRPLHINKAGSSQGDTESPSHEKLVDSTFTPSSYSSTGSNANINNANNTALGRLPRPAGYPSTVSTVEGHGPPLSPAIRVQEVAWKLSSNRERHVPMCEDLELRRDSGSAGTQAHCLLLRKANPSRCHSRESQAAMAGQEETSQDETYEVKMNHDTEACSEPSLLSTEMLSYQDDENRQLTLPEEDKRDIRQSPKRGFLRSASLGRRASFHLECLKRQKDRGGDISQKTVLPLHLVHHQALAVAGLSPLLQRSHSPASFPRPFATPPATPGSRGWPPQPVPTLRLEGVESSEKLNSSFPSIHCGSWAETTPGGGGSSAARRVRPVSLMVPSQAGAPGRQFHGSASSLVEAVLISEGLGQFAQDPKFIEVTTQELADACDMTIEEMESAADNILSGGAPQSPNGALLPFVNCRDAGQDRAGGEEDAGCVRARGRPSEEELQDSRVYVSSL

## Cc1nnc2sc(C(=O)NCc3ccc(S(=O)(=O)C(F)(F)F)cc3)c(N)c2c1C
[1]
  IC50: 240 nM

## Cc1nnc2sc(C(=O)NCc3ccc(S(F)(F)(F)(F)F)cc3)c(N)c2c1C
[2]
  EC50: 30.2 nM
[3]
  Kp: 1.4
[4]
  EC50: 550 nM
[5]
  clearance: 12 mL/min/kg
[6]
  IC50: 6500 nM
[7]
  IC50: 2100 nM

## Cc1nnc2sc(C(=O)NCc3ccc(S(=O)(=O)C(F)F)cc3)c(N)c2c1C
[2]
  EC50: 17.8 nM
[3]
  Kp: 0.11
[4]
  EC50: 251 nM
[5]
  clearance: 16 mL/min/kg
[8]
  IC50: 5700 nM
